target: human FPR2 receptors (Homo sapiens (Human), UniProt P25090); assay: FPR2 cyclic adenosine monophosphate (cAMP) assay; type: cell-based; conditions: hFPR2 Assay, CHO cells overexpressing human FPR2; potency bins; read-out: hFPR2 agonist activity EC50 values
Experimental: FPR2 and FPR1 Cyclic Adenosine Monophosphate (cAMP) Assays. A mixture of forskolin (5 μM final for FPR2 or 10 μM final for FPR1) and IBMX (200 μM final) were added to 384-well Proxiplates (Perkin-Elmer) pre-dotted with test compounds in DMSO (1% final) at final concentrations in the range of 1.7 nM to 100 μM. Chinese Hamster Ovary cells (CHO) overexpressing human FPR1 or human FPR2 receptors were cultured in F-12 (Ham's) medium supplemented with 10% qualified FBS, 250 μg/ml zeocin and 300 μg/ml hygromycin (Life Technologies). Reactions were initiated by adding 2,000 human FPR2 cells per well or 4,000 human FPR1 cells per well in Dulbecco's PBS (with calcium and magnesium) (Life Technologies) supplemented with 0.1% BSA (Perkin-Elmer). The reaction mixtures were incubated for 30 min at room temperature. The level of intracellular cAMP was determined using the HTRF HiRange cAMP assay reagent kit (Cisbio) according to manufacturer's instruction. Solutions of cryptate conjugated anti-cAMP and d2 flurorophore-labelled cAMP were made in a supplied lysis buffer separately. Upon completion of the reaction, the cells were lysed with equal volume of the d2-cAMP solution and anti-cAMP solution. After a 1-h room temperature incubation, time-resolved fluorescence intensity was measured using the Envision (Perkin-Elmer) at 400 nm excitation and dual emission at 590 nm and 665 nm. A calibration curve was constructed with an external cAMP standard at concentrations ranging from 1 μM to 0.1 pM by plotting the fluorescent intensity ratio from 665 nm emission to the intensity from the 590 nm emission against cAMP concentrations. The potency and activity of a compound to inhibit cAMP production was then determined by fitting to a 4-parametric logistic equation from a plot of cAMP level versus compound concentrations.

Chain of human FPR2 receptors (P25090 whole entry): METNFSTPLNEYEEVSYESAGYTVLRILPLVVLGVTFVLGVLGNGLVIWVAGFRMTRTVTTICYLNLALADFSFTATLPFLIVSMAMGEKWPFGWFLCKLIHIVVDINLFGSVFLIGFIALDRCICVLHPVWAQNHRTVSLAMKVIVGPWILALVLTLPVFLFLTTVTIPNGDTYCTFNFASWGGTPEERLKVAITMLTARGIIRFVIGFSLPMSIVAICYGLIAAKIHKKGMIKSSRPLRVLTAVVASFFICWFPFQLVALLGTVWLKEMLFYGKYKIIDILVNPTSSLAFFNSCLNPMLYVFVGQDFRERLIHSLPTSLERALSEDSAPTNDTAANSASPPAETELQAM

SMILES | EC50
O=C(Nc1ccc(C(F)(F)F)nc1)N[C@@H]1CCCN(c2ccc(C3(CO)CC3)cc2)C1=O [Example 3] | 100 to 1250 nM
CS(=O)(=O)NCC1(c2ccc(N3CCC[C@@H](NC(=O)Nc4ccc(C(F)(F)F)cn4)C3=O)c(F)c2)CC1 [Example 4] | 10 to 100 nM
COc1cnc(NC(=O)N[C@H]2CCCN(c3ccc(C4(CNS(C)(=O)=O)CCC4)cc3)C2=O)cn1 [Example 10] | 10 to 100 nM
COc1cnc(NC(=O)N[C@H]2CCCN(c3ccc(C4(CNS(C)(=O)=O)CC4)cc3)C2=O)cn1 [Example 11] | 100 to 1250 nM
CS(=O)(=O)NCC1(c2ccc(N3CCC[C@@H](NC(=O)Nc4ncc(Cl)cc4Cl)C3=O)cc2)CCC1 [Example 13] | 10 to 100 nM
CS(=O)(=O)NCC1(c2ccc(N3CCC[C@H](NC(=O)Nc4ccc(C(F)(F)F)cc4)C3=O)cc2F)CC1 [Example 15] | 10 to 100 nM
CS(=O)(=O)NCC1(c2ccc(N3CCC[C@@H](NC(=O)Nc4ncc(C(F)(F)F)cn4)C3=O)cc2)CC1 [Example 16] | 10 to 100 nM
CS(=O)(=O)NCC1(c2ccc(N3CCC[C@@H](NC(=O)Nc4ncc(C(F)(F)F)cc4F)C3=O)cc2F)CC1 [Example 17] | 10 to 100 nM
CS(=O)(=O)NCC1(c2ccc(N3CCC[C@@H](NC(=O)Nc4cnc(Cl)cn4)C3=O)cc2F)CC1 [Example 19] | ≤ 10 nM
CS(=O)(=O)NCC1(c2ccc(N3CCC[C@@H](NC(=O)Nc4ncc(Cl)cc4F)C3=O)cc2F)CC1 [Example 20] | ≤ 10 nM
CS(=O)(=O)NCC1(c2ccc(N3CCC[C@@H](NC(=O)Nc4ccc(OC(F)F)nc4)C3=O)cc2F)CC1 [Example 21] | 10 to 100 nM
CS(=O)(=O)NCC1(c2ccc(N3CCC[C@@H](NC(=O)Nc4ncc(Cl)cc4Cl)C3=O)cc2F)CC1 [Example 22] | 100 to 1250 nM
CS(=O)(=O)NCC1(c2ccc(N3CCC[C@@H](NC(=O)Nc4ccc(Cl)cn4)C3=O)cc2)CC1 [Example 23] | ≤ 10 nM
COc1ccc(NC(=O)N[C@@H]2CCCN(c3ccc(C4(CNS(C)(=O)=O)CC4)cc3)C2=O)nc1 [Example 24] | ≤ 10 nM
Cc1cnc(NC(=O)N[C@@H]2CCCN(c3ccc(C4(CNS(C)(=O)=O)CC4)cc3)C2=O)cn1 [Example 25] | ≤ 10 nM
CS(=O)(=O)NCC1(c2ccc(N3CCC[C@@H](NC(=O)Nc4ccc(C(F)(F)F)cn4)C3=O)cc2F)CC1 [Example 26] | 10 to 100 nM
CS(=O)(=O)NCC1(c2ccc(N3CCC[C@@H](NC(=O)Nc4ccc(C(F)(F)F)cn4)C3=O)cc2)CCC1 [Example 28] | ≤ 10 nM
CS(=O)(=O)NCC1(c2ccc(N3CCC[C@@H](NC(=O)Nc4ccc(C(F)(F)F)cn4)C3=O)cc2)CCCC1 [Example 29] | 10 to 100 nM

Other lines, results leading:

EC50 | SMILES
≤ 10 nM | CS(=O)(=O)NCC1(c2ccc(N3CCC[C@@H](NC(=O)Nc4ccc(C(F)(F)F)nc4)C3=O)cc2)CCC1 [Example 1, (R)—N-((1-(4-(2-Oxo-3-(3-(6-(trifluoromethyl)pyridin-3-yl)ureido)piperidin-1-yl)phenyl)cyclobutyl)methyl)methanesulfonamide]
≤ 10 nM | CS(=O)(=O)NCC1(c2ccc(N3CCC[C@@H](NC(=O)Nc4ccc(C(F)(F)F)nc4)C3=O)cc2F)CC1 [Example 2]
≤ 10 nM | COc1cnc(NC(=O)N[C@@H]2CCCN(c3ccc(C4(CNS(C)(=O)=O)CC4)c(F)c3)C2=O)cn1 [Example 5]
≤ 10 nM | COc1cnc(NC(=O)N[C@@H]2CCCN(c3ccc(C4(CNS(C)(=O)=O)CCC4)cc3)C2=O)cn1 [Example 7]
≤ 10 nM | Cc1cnc(NC(=O)N[C@@H]2CCCN(c3ccc(C4(CNS(C)(=O)=O)CCC4)cc3)C2=O)cn1 [Example 8]
≤ 10 nM | COc1cnc(NC(=O)N[C@@H]2CCCN(c3ccc(C4(CNS(C)(=O)=O)CC4)cc3)C2=O)cn1 [Example 9]
≤ 10 nM | CS(=O)(=O)NCC1(c2ccc(N3CCC[C@H](NC(=O)Nc4cnc(Cl)cn4)C3=O)cc2)CCC1 [Example 12]
≤ 10 nM | CS(=O)(=O)NCC1(c2ccc(N3CCC[C@@H](NC(=O)Nc4ncc(C(F)(F)F)cc4F)C3=O)cc2)CCC1 [Example 14]

Source: US11124494B2, “Aryl heterocyclic piperidinone formyl peptide 2 receptor and formyl peptide 1 receptor agonists” (Bristol-Myers Squibb Company, priority 2017, dated 2021)
